# In patent US5554653A, “Inhibitors of HIV protease useful for the treatment of AIDS” (Eli Lilly and Company, priority 1992, dated 1996):
# Biological target: T1, HIV-1 protease (Human immunodeficiency virus type 1 group M subtype B, UniProt P04585)
# T1 construct: Purified HIV-1 protease was obtained as described above; made in house; host or cells: E. coli K12 L507/pHP10D (NRRL B-18560)
# Experiment: biochemical
# Type: biochemical
# Details: read-out: Fluorescence Assay IC5
# Experimental: C. Preparation of Protease Fraction
# A culture of E. coli K12 L507/pHP10D was grown to mid-log phase at 32° C. in LB media containing 12.5 μg/ml tetracycline. The cultivation temperature was quickly elevated to 40° C. to induce gene expression, and the cells were allowed to grow for 2.5 hours at this temperature before the culture was quickly chilled on ice. The cells were centrifuged and the cell pellet was resuspended in 20 mL 50 mmol MES buffer (pH 6.0) containing 1 mmol EDTA, 1 mmol DTT, 1 mmol PMSF and 10% glycerol ("Buffer A"). Cells were lysed by sonication using a Fischer Model 300 Dismembrator and a microtip probe. Following centrifugation at 27,000×g, the supernatant was diluted to a total volume of 60 mL with Buffer A and loaded onto a 2.0×19 cm QAE-Sepharose column (1 mL/min, 4° C.), that had been equilibrated in Buffer A. The column was washed isocratically for 180 min and then eluted with a gradient eluent of 0-1.0M sodium chloride in Buffer A over 120 min. Enzymatic activity was measured by HPLC using the synthetic peptide SQNYPIV as described in Margolin et al., Biochem. Biophys. Res. Commun., 167, 554-560 (1990); the production of the p1 peptide (SQNY) was measured.
# The active fractions were combined, made 1.2M in ammonium sulfate, and applied to a 2.0×18 cm hexyl agarose column that had been equilibrated in Buffer A containing 1.2M ammonium sulfate. The sample was loaded at a flow rate of 1 mL/min at 4° C., washed with the equilibration buffer for 240 min (1 mL/min) and then eluted using a reverse linear gradient of 1.2-0M ammonium sulfate in Buffer A for 120 min at the same flow rate. The column was then washed isocratically in Buffer A for 120 min.
# The active fractions were combined, concentrated to 10 mL using an Amicon stirred cell with a YM-10 membrane and then applied to a MonoS cation exchange column (1.0×10 cm) that had been equilibrated in Buffer A. The sample was loaded at a flow rate of 1 mL/min at 25° C. After washing isocratically for 30 min, the protease was eluted using a linear gradient of 0-0.45M sodium chloride in Buffer A over 40 min. The column was washed isocratically in Buffer A containing 0.45M sodium chloride for 30 min.
# The active fractions were combined and concentrated to 200 μL using an Amicon stirred cell and a YM-10 membrane and then the protease was applied to a Superose 6 size exclusion column equilibrated in Buffer A containing 0.1M sodium chloride.
# The purified peptide was labeled with a fluorescent marker at the C-terminal end for use in the Pandex assay. N^α -Biotin-[…]OH SEQ ID NO:3. (1.206 g, 0.936 mmol) was dissolved in 100 mL of 0.1M sodium borate, pH 9.5. Then, a solution of 3 g (7.7 mmol) of fluorescein isothiocyanate in 15 mL dimethyl sulfoxide was added to the reaction mixture in 10 equal portions over two hours. The resulting mixture was allowed to react for one hour after the final addition. The solution was adjusted to pH 3 using 5N hydrochloric acid, resulting in the formation of a precipitate which was removed by centrifugation.
# E. Fluorescence HIV-1 Protease Inhibitor Assay
# The following buffers and solutions are used in the Fluorescence HIV-1 Protease Inhibitor Assay:
# MES-ALB Buffer: 0.05M 4-morpholineethane
# Avidin Coated 0.1% solution of Fluoricon
# Beads Solution: Avidin Assay Particles
# (Avidin conjugated to solid
# polystyrene beads, 0.6-0.8
# microns in diameter in TBSA
# 27 IU/mL of purified HIV-1
# protease in MES-ALB buffer
# (1 IU equals the amount of
# enzyme required to hydrolyze
# 1 μmole of substrate per
# To each well of a round bottom, 96-well plate is added 20 μL of the Enzyme Solution followed by 10 μL of the compound to be evaluated in a 20% aqueous dimethylsulfoxide solution. Purified HIV-1 protease was obtained as described above.
row,IC5,SMILES
1,1 µg/mL,"CC(C)(C)NC(=O)c1ccccc1C[C@@H](O)[C@H](Cc1ccccc1)NC(=O)[C@H](N)COCc1ccccc1 [Example 13B, [2R-(2R*,3S*,6R*)]-N-t-Butyl-2-[2-hydroxy-3-phenylmethyl-4-aza-5-oxo-6-amino-7-benzyloxy]heptyl benzamide]"

# Same assay, conditions: read-out: Fluorescence Assay IC50 (converted)
row,SMILES,IC50
1,"CC(=O)N[C@H](CC(=O)OCc1ccccc1)C(=O)N[C@@H](Cc1ccccc1)[C@H](O)Cc1ccccc1C(=O)NC(C)(C)C [Example 1C, [2R-(2R*, 3S*, 6R*)1-N-t-Butyl-2-[2-hydroxy-3-phenylmethyl-4-aza-5-oxo-6-N(ethanoyl)amino-7-benzyloxycarbonyl]heptylbenzamide]",56.1 nM
2,"CC(=O)N[C@H](CC(=O)NCc1ccccn1)C(=O)N[C@@H](Cc1ccccc1)[C@H](O)Cc1ccccc1C(=O)NC(C)(C)C [Example 2, [2R-(2R*, 3S*, 6R*)]-N-t-Butyl-2-[2-hydroxy-3-phenylmethyl-4-aza-5-oxo-6-N(ethanoyl)amino-8-oxo-9-aza-10-pyrid-2-yl]decyl benzamide]",451 nM
3,"CC(=O)N[C@H](CC(=O)Nc1cnc2ccccc2c1)C(=O)N[C@@H](Cc1ccccc1)[C@H](O)Cc1ccccc1C(=O)NC(C)(C)C [Example 3, [2R-(2R*, 3S*, 6R*)]-N-t-butyl-2-[2-hydroxy-3-phenylmethyl-4-aza-5-oxo-6-N(ethanoyl)amine-8-oxo-8-N (quinolin-3-yl)amine]octyl benzamide]",548 nM
4,"CC(=O)N[C@H](CC(=O)NCc1ccccc1)C(=O)N[C@@H](Cc1ccccc1)[C@H](O)Cc1ccccc1C(=O)NC(C)(C)C [Example 4, [2R-(2R*, 3S*, 6R *]-N-t-butyl-2-[2-hydroxy-3-phenylmethyl-4-aza-5-oxo-6-N (ethanoyl)amino-8-oxo-9-aza-10-phenyl]decylbenzamide]",341 nM
5,"CN(C)S(=O)(=O)N[C@H](CC(=O)OCc1ccccc1)C(=O)N[C@@H](Cc1ccccc1)[C@H](O)Cc1ccccc1C(=O)NC(C)(C)C [Example 5, [2R-(2R*, 3S *, 6R*)]-N-t-butyl-2-[2-hydroxy-3-phenylmethyl-4-aza-5-oxo-6-N(dimethylaminosulfonyl)amino-7-benzyloxycarbonyl]heptyl benzamide]",8.58 nM
6,"CCC(=O)N[C@H](CC(=O)OCc1ccccc1)C(=O)N[C@@H](Cc1ccccc1)[C@H](O)Cc1ccccc1C(=O)NC(C)(C)C [Example 6, [2R-(2R*,3S*,6R*)]-N-t-butyl-2-[2-hydroxy-3-phenylmethyl-4-aza-5-oxo-6-N(propanoyl)amino-7-benzyloxycarbonyl]heptyl benzamide]",26.6 nM
7,"CCCC(=O)N[C@H](CC(=O)OCc1ccccc1)C(=O)N[C@@H](Cc1ccccc1)[C@H](O)Cc1ccccc1C(=O)NC(C)(C)C [Example 7, [2R-(2R*, 3S *, 6R*)]-N-t-butyl-2-[2-hydroxy-3-phenylmethyl-4-aza-5-oxo-6-N(butanoyl)amino-7-benzyloxycarbonyl]heptyl benzamide]",115 nM
8,"CC(C)(C)NC(=O)c1ccccc1C[C@@H](O)[C@H](Cc1ccccc1)NC(=O)[C@@H](CC(=O)OCc1ccccc1)NS(C)(=O)=O [Example 8A, [2R-(2R*,3S*, 6R*)]-N-t-butyl-2-[2-hydroxy-3-phenylmethyl-4-aza-5-oxo-6-N(methylsulfonyl)amino-7-benzyloxycarbonyl]heptyl benzamide]",3.69 nM
9,"CC(C)(C)NC(=O)c1ccccc1C[C@@H](O)[C@H](Cc1ccccc1)NC(=O)[C@@H](CC(=O)Nc1ccc2ccccc2n1)NS(C)(=O)=O [Example 9, [2R-(2R*, 3S*, 6R*)]-N-t-butyl-2-[2-hydroxy-3-phenylmethyl-4-aza-5-oxo-6-N-(methylsulphonyl)amino-8-oxo-8-N (quinolin-2-yl)amino]octyl benzamide]",13.6 nM
10,"CC(C)(C)NC(=O)c1ccccc1C[C@@H](O)[C@H](Cc1ccccc1)NC(=O)[C@@H](CC(=O)NCc1ccccc1)NS(C)(=O)=O [Example 10, [2R-(2R*, 3S*, 6R*)]-N-t-butyl-2-[2-hydroxy-3-phenylmethyl-4-aza-5-oxo-6-N(methylsulfonyl)amino-8-oxo-8-N(benzyl)amino]octyl benzamide]",4.34 nM
11,"CC(C)(C)NC(=O)c1ccccc1C[C@@H](O)[C@H](Cc1ccccc1)NC(=O)[C@@H](CC(=O)NCc1ccc2ccccc2n1)NS(C)(=O)=O [Example 11, [2R-(2R*, 3S*, 6R)]-N-t-butyl-2-[2-hydroxy-3-phenylmethyl-4-aza-5-oxo-6-N(methylsulfonyl)amino-8-oxo-9-aza-10-quinolin-2-yl]decyl benzamide]",2.52 nM
12,"CC(C)(C)NC(=O)c1ccccc1C[C@@H](O)[C@H](Cc1ccccc1)NC(=O)[C@@H](CC(=O)OCc1ccccc1)NC(N)=O [Example 12, [2R-(2R*, 3S*, 6R*)]-N-t-butyl-2-[2-hydroxy-3-phenylmethyl-4-aza-5-oxo-6-N(carbamoyl)amino-7-benzyloxycarbonyl]heptyl benzamide]",28.9 nM
13,"CC(=O)N[C@H](COCc1ccccc1)C(=O)N[C@@H](Cc1ccccc1)[C@H](O)Cc1ccccc1C(=O)NC(C)(C)C [Example 13C, [2R-(2R*, 3S*, 6R*)]-N-t-Butyl-2-[2-hydroxy-3-phenylmethyl-4-aza-5-oxo-6-N(ethanoyl)amino-7-benzyloxy]heptyl benzamide]",230 nM
14,"CC(C)(C)NC(=O)c1ccccc1C[C@@H](O)[C@H](Cc1ccccc1)NC(=O)[C@@H](COCc1ccccc1)NS(C)(=O)=O [Example 14, [2R-(2R*, 3S*, 6R*)]-N-t-Butyl-2-[2-hydroxy-3-phenylmethyl-4-aza-5-oxo-6-N (methylsulfonyl)amino-7-benzyloxy]heptyl benzamide]",43.6 nM
15,"CC(C)(C)NC(=O)c1ccccc1C[C@@H](O)[C@H](Cc1ccccc1)NC(=O)[C@@H](CSc1ccc2ccccc2c1)NC(=O)OC(C)(C)C [Example 15A, [2R-(2R*,3S*,6S*)]-N-t-Butyl-2-[2-hydroxy-3-phenylmethyl-4-aza-5-oxo-6-N(t-butoxycarbonyl)amino-7-naphth-2-ylthio]heptyl benzamide]",> 1490 nM

# The remaining lines, values ahead:
row,IC50,SMILES
1,130 nM,"CC(=O)N[C@H](CSc1ccccc1)C(=O)N[C@@H](Cc1ccccc1)[C@H](O)Cc1ccccc1C(=O)NC(C)(C)C (relative stereo) [Example 20A, [2R(2R*,3S*,6S*)]-N-t-Butyl-2-[2-hydroxy-3-phenylmethyl-4-aza-5-oxo-6-N(ethanoyl)amino-7-phenylthio]heptyl benzamide]"
2,223 nM,"CC(C)(C)NC(=O)c1ccccc1C[C@@H](O)[C@H](Cc1ccccc1)NC(=O)[C@H](N)CSc1ccc2ccccc2c1 [Example 15B, [2R-(2R*,3S*,6S*)]-N-t-Butyl-2-[2-hydroxy-3-phenylmethyl-4-aza-5-oxo-6-amino-7-naphth-2-ylthio]heptyl benzamide]"
3,10.6 nM,"CC(=O)N[C@H](CSc1ccc2ccccc2c1)C(=O)N[C@@H](Cc1ccccc1)[C@H](O)Cc1ccccc1C(=O)NC(C)(C)C [Example 16A, [2R-(2R*, 3S*, 6S*)]-N-t-Butyl-2-[2-hydroxy-3-phenylmethyl-4-aza-5-oxo-6-N (ethanoyl)amino-7-naphth-2-ylthio]heptyl benzamide]"
4,0.186 nM,"CC(=O)N[C@H](CS(=O)(=O)c1ccc2ccccc2c1)C(=O)N[C@@H](Cc1ccccc1)[C@H](O)Cc1ccccc1C(=O)NC(C)(C)C [Example 16B, [2R-(2R*,3S*,6S*)]-N-t-Butyl-2-[2-hydroxy-3-phenylmethyl-4-aza-5-oxo-6-N(ethanoyl)amino-7-naphth-2-ylsulfonyl]heptyl benzamide]"
